In paper PMC10305181, “A VEGFB-Based Peptidomimetic Inhibits VEGFR2-Mediated PI3K/Akt/mTOR and PLCγ/ERK Signaling and Elicits Apoptotic, Antiangiogenic, and Antitumor Activities” (Pharmaceuticals, 2023):
Bridge positions count the residues as written; N and C are the ends. Peptide text beside a SMILES is read from it.

Test system: HUVECs
Assay: TUNEL assay, HUVECs
Type: cell-based, human
Conditions: 0.40 μM, n = 3, p < 0.0001
Text: Periodic boundary conditions were used, and bonds were restrained by applying the LINCS algorithm to their equilibrium position. Initial structures were solvated with three-point model water molecules in a cubic box of 1.0 nm to fully cover the protein system in water, following periodic boundary conditions (PBC). The produced system for each peptide was neutralized through the “genion tool” plugin of the GROMACS package by adding ions Na+ and Cl−. Then, the system was minimized for 50000 iterations using the steepest descent (SD) algorithm and using velocity rescaling (modiﬁed Berendsen) temperature coupling and Parrinello-Rahman pressure coupling methods, simulated under an isothermal-isobaric ensemble (NPT) for 5 ns at a constant temperature, the pressure of 300 K, and 1 atm, respectively. The NVT and NPT equilibration was carried out for 50000 steps. The minimization and equilibration procedures were executed, and finally, one system of the peptide was subjected to a 200 ns production run of MD simulations utilizing 2 fs as the time step and coordinates of all atoms were recorded in the form of .trr GROMACS trajectory ﬁle every 10 ps.
2 × 10^3 HUVE or 4T1 cells were cultured in DMEM and RPMI-1640 media, respectively, supplemented with 10% (v/v) FBS overnight. Then, the cells were incubated in the media supplemented with 5% FBS, with PBS or C-VGB3 (0.40 μM). […]

CC(C)C[C@@H]1NC(=O)CNC(=O)[C@H](CC(=O)O)NC(=O)[C@H](CC(=O)O)NC(=O)[C@@H]2CCCN2C(=O)[C@@H]2CCCN2C(=O)[C@H](CCCNC(=N)N)NC(=O)[C@@H](NC(=O)[C@@H](N)CCC(=O)O)CSSC[C@@H](C(=O)O)NC1=O [C-VGB3] (H-ECRPPDDGLC-OH; disulfide 2-10)
TUNEL fluorescent labeling: fluorescent-labeled more than control cells
